These compounds were tested on (+)-MK801 binding site of the ionotropic NMDA receptor (assay: (3H)-(+)-MK801 receptor binding test on rat brain membrane homogenates). Details: 10 μmol/l compound; ligand (3H)-(+)-MK801; rat brain membrane homogenate; triplicate batches.
Description: The investigations for determining the affinity of the octahydrophenanthrene compounds of the general formula I according to the invention with the (+)-MK801 binding site of the ionotropic NMDA receptor was performed on brain membrane homogenates (homogenate of rat brain without the cerebellum, pons and medulla oblongata of male rats, Wistar strain, Charles River, WIGA GmbH, Sulzbach, Germany) as described in B. M. Baron et al., Journal of Pharmacology and Experimental Therapeutics, vol. 279, pages 62-68, 1996. The corresponding literature description is hereby introduced as a reference and is deemed to be part of the disclosure.
To this end, after separation of the cerebellum, pons and medulla oblongata, freshly prepared rat brains were disrupted for 1 minute with a Polytron homogeniser at 6,000 rpm in 50 mmol/l of tris/HCl (pH 7.7) with ice cooling and were then centrifuged for 15 min at 4° C. and 60,000 g. After decanting off and discarding the supernatant, resuspending the membrane pellet in 50 mmol/l of tris/HCl (pH 7.7) and disrupting it with a homogeniser at 2,000 rpm for 1 minute, centrifuging was again performed for 15 min at 4° C. and 60,000 g. The supernatant was again discarded and the membrane pellet was homogenised in 50 mmol/l of tris/HCl (pH 7.7) (2,000 rpm for 1 minute) and frozen in aliquots at −70° C.
Aliquots were in each case thawed for the receptor binding test and then centrifuged for 15 min at 4° C. and 60,000 g. After decanting off and discarding the supernatant, the membrane pellet was suspended for the binding test with binding test buffer and homogenised (2,000 rpm for 1 minute).
The buffer used for the binding test was a buffer of 5 mmol/l of tris/HCl (pH 7.7), supplemented with 30 μmol/l of glycine and 100 μmol/l of glutamic acid.
The radioactively labelled ligand used was […] of (^3H)-(+)-MK801 ((5R,10S)-(+)-5-methyl-10,11-dihydro-5H-dibenzo(a,d)cyclohepten-5,10-imine). The level of non-specific binding was determined in the presence of 10 μmol/l of non-radioactively labelled (+)-MK801.
were added in concentration series and the displacement of the radioactive ligand from its specific binding on the NMDA receptor was determined. Each of the triplicate batches was incubated for 40 minutes at 25° C. and then harvested by filtration through glass fibre filters (GF/B) in order to determine the radioactive ligand bound to the brain membrane homogenate. The radioactivity retained on the glass fibre filter disk was measured, after addition of scintillating liquid, in the β-counter.
The percentage inhibition of the specific binding of the ligand (^3H)-(+)-MK801 obtained from triplicate batches in the presence of in each case 10 μmol/l of the substituted octahydrophenanthrene compounds of the general formula I is stated in Table 1 and serves as a measure of the affinity of the compounds of the general formula I according to the invention with the (+)-MK801 binding site of the ionotropic NMDA receptor.

First: CN(C)CC1CCCC2c3ccccc3CCC12.Cl (stereo not drawn) [Compound 1, 8-Dimethylaminomethyl-4b,5,6,7,8,8a,9,10-octahydrophenanthrene hydrochloride]
Second: CN(C)CC1CCCC2c3cc(O)ccc3CCC12.Cl (stereo not drawn) [Compound 3, 8-Dimethylaminomethyl-4b,5,6,7,8,8a,9,10-octahydrophenanthren-3-ol hydrochloride]
The “Percentage inhibition of (+)-MK801 binding at 10 μM” value (from here on “Percentage inhibition … at 10 μM”) of the first is higher: 46% for the first, 40% for the second.

Going from `CN(C)CC1CC(C(C)(C)C)CC2c3ccccc3CCC12.Cl` (stereo not drawn) [Compound 6, 6-tert-Butyl-8-dimethylaminomethyl-4b,5,6,7,8,8a,9,10-octahydrophenanthrene hydrochloride] to `COc1ccc2c(c1)C1CCCC(CN(C)C)C1CC2.Cl` (stereo not drawn) [Compound 2, 8-Dimethylaminomethyl-3-methoxy-4b,5,6,7,8,8a,9,10-octahydrophenanthrene hydrochloride], the “Percentage inhibition … at 10 μM” value rises from 31% to 56%.

First: CN(C)CC1CCCC2c3cc(Cl)ccc3CCC12.Cl (stereo not drawn) [Compound 5, 8-Dimethylaminomethyl-3-chloro-4b,5,6,7,8,8a,9,10-octahydrophenanthrene hydrochloride]
Second: CN(C)CC1CCCC2c3ccc(F)cc3CCC12.Cl (stereo not drawn) [Compound 4, 8-Dimethylaminomethyl-2-fluoro-4b,5,6,7,8,8a,9,10-octahydrophenanthrene hydrochloride]
The “Percentage inhibition … at 10 μM” value of the first is lower: 28% for the first, 36% for the second.

These compounds were tested on phenylquinone-induced writhing in mice (assay: Writhing test in mice (phenylquinone-induced writhing)). Details: male mice, phenylquinone i.p., writhing counted 5-20 minutes after phenylquinone.
Type: in vivo
Description: The analgesic efficacy of the compounds according to the invention was investigated by phenylquinone-induced writhing in mice, modified after I.C. Hendershot, J. Forsaith in J. Pharmacol. Exp. There. 125, 237-240 (1959). Male mice weighing 25-30 g were used for this purpose. Groups of 10 animals per substance dose received, 1.0 minute after intravenous administration of the substances tested, 0.3 ml/mouse of a 0.02% aqueous solution of phenylquinone (phenylbenzoquinone, Sigma, Deisenhofen; solution prepared with addition of 5% of ethanol and stored in a water bath at 45° C.) administered intraperitoneally. The animals were then placed individually in observation cages. A push button counter was used to record the number of pain-induced stretching movements (writhing reactions=straightening of the torso with stretching of the rear extremities) for 5-20 minutes after phenylquinone administration. The control was provided by animals who received only physiological common salt solution with phenylquinone.
All the substances were tested at the standard dosage of 10 mg/kg. The percentage inhibition (% inhibition) of the writhing reactions by a substance was calculated according to the following formula: [formula]

Going from `CN(C)CC1CCCC2c3ccccc3CCC12.Cl` (stereo not drawn) [Compound 1, 8-Dimethylaminomethyl-4b,5,6,7,8,8a,9,10-octahydrophenanthrene hydrochloride] to `CN(C)CC1CCCC2c3cc(O)ccc3CCC12.Cl` (stereo not drawn) [Compound 3, 8-Dimethylaminomethyl-4b,5,6,7,8,8a,9,10-octahydrophenanthren-3-ol hydrochloride], the “Percentage inhibition of writhing reaction at 10 mg/kg i.v.” value rises from 74% to 85%.

For `COc1ccc2c(c1)C1CCCC(CN(C)C)C1CC2.Cl` (stereo not drawn) [Compound 2, 8-Dimethylaminomethyl-3-methoxy-4b,5,6,7,8,8a,9,10-octahydrophenanthrene hydrochloride], the “Percentage inhibition of writhing reaction at 10 mg/kg i.v.” value was 75%.

— patent publication US20040162432A1, “Substituted octahydrophenanthrene compounds and use thereof as NMDA antagonists” (priority 2001, published 2004)
